The values below come from patent US5019492A, “Photographic element and process comprising a blocked photographically useful compound” (Eastman Kodak Company, priority 1989, dated 1991).

A short description of series [1]: Unblocking of shifted masking coupler in fixed unexposed strips (density at 520 nm). The conditions noted are these: blocked compound. The protocol:
Each compound was dispersed in an equal weight of 2,4-di-t-pentylphenol and coated in the following format on a poly(ethylene terephthalate) film support (unless otherwise specified, component amounts are given in mg/m^2 with silver halide counted as silver):
OVERCOAT Gelatin (2691); bis(vinylsulfonyl-
LAYER: methyl) ether hardener (1.75% of
EMULSION Gelatin (3767); unsensitized AgBr
LAYER: emulsion (906); masking coupler
Unexposed strips of this coated element were soaked 1 minute in a fixing solution to remove silver halide, washed, and then immersed in one of the following processing solutions at temperatures conventionally used for processing in a KODAK C-41 process:
P-1: pH 10 carbonate buffer
P-2: pH 10 carbonate buffer with 0.024M hydroxylamine sulfate
P-3: C-41 color developer with hydroxylamine sulfate omitted
P-4: C-41 color developer solution containing hydroxylamine sulfate

A short description of series [2]: Deblocking of blocked filter dyes in C-41 developer with or without hydroxylamine sulfate at 38° C. The following applies: unblocked dye. Here is the method: FILTER DYE Gelatin (4844); blocked filter dye
bis(vinylsulfonylmethyl) ether
Strips of each coating were soaked at 38° C. in C-41 developer or in the same C-41 developer formulation from which hydroxylamine sulfate (HAS) had been omitted. The rate of deblocking of each filter dye was followed by measuring the density at the absorption maximum of the unblocked dye at selected time intervals.

The nature of series [3]: Model deblocking (hydrolysis) half-lives of esters with mononucleophile (A+B) or dinucleophile hydroxylamine (A+C), pH 10, 25° C. Type of series: physicochemical. The conditions noted are these: for rate enhancement due to dinucleophile (hydroxylamine) participation, compared with comparison esters E-4 and E-5: pH 10.0, 25° C.; for Ratio (A+B half-life to A+C half-life): rate enhancement due to hydroxylamine. Here is the method:
Model studies were conducted on esters E-1 through E-5 to determine the possible rate enhancement which could be attained by using a dinucleophile rather than a mononucleophile to promote the removal from a phenolic moiety of a blocking group of this invention. Aqueous solutions A, B, and C, each containing 50% by volume of acetonitrile were prepared as follows (a separate solution A for each ester):
Solution A: 2.5 × 10^-4 M ester (or 2.5 × 10^-5 M
Solution B: 25% by volume carbonate buffer
(ionic strength 0.75); 0.05 N KCl
Solution C: Solution B with added 0.05 M
Then equal volumes of A and B (or A and C) were mixed at 25° C. to give a pH 10.0 solution and the reaction was followed by spectrophotometric measurements of the phenol (272 nm) or p-nitrophenol (402 nm) produced with time. In each case a reaction half-life (t1/2) was calculated from the equation t1/2 =1n(2)/k, where 1n(2) is the natural logarithm of 2 and k is the pseudo first-order rate constant calculated for the reaction. Smaller half-lives thus indicate more rapid reactions. The A+B combination provides an alkaline solution in which the main reactant is hydroxide ion (a mononucleophile) while in the A+C combination the active reactant is hydroxylamine (a dinucleophile). A ratio of the A+B half-life to the A+C half-life provides a measure of rate enhancement due to participation of hydroxylamine in the deblocking reaction.

On to `CCC(C)(C)c1ccc(OCCCCNC(=O)c2cc(Oc3ccc(N=Nc4cc(OC(C)C(=O)O)c5ccccc5c4OC(=O)C4(C)CCCCC4=O)cc3)c3ccccc3c2O)c(C(C)(C)CC)c1` (stereo not drawn) [Compound 3], for which the “absorption maximum (blocked)” value in series [1] was “about 375 nm”.
As to `CCCCCCCCCCCCOC(=O)c1ccc(N=Nc2ccc(N(CC)C(=O)OCc3ccc(OC(=O)C4(C)CCCCC4=O)c(NS(C)(=O)=O)c3)c(OC)c2)cc1` (stereo not drawn) [Compound 4], the “λmax (Unblocked)” value in series [2] came out at 440 nm.
Take `CCCCCCCCCCCCOC(=O)c1ccc(N=Nc2ccc(N(CC)C(=O)OCc3ccc(OC(=O)C4(C)CCCCC4=O)c(Cl)c3)c(OC)c2)cc1` (stereo not drawn) [Compound 5]: the “λmax (Unblocked)” value in series [2] worked out at 440 nm.
As to `CCCCCCCCCCCCN(C(=O)OCc1ccc(OC(=O)C2(C)CCCCC2=O)c(NS(C)(=O)=O)c1)c1ccc(N=Nc2ccc([N+](=O)[O-])cc2C(=O)OC)cc1OC` (stereo not drawn) [Compound 6], the “λmax (Unblocked)” value in series [2] stood at 495 nm.
Turning to `CC(=O)C(C)(C)C(=O)Oc1ccc([N+](=O)[O-])cc1` [Compound E-1], in series [3], the “rate enhancement due to dinucleophile (hydroxylamine) participation, compared with comparison esters E-4 and E-5” value is “twenty to seventy thousand times greater”; the “Ratio (A+B half-life to A+C half-life)” value is given as 36 × 10^3.
On to `CC(=O)C(C)(C)C(=O)Oc1ccccc1` [Compound E-2], for which, in series [3], the “rate enhancement due to dinucleophile (hydroxylamine) participation, compared with comparison esters E-4 and E-5” value is “twenty to seventy thousand times greater”; the “Ratio (A+B half-life to A+C half-life)” value was 93 × 10^3.
With `CC1(C(=O)Oc2ccccc2)CCCCC1=O` (stereo not drawn) [Compound E-3], in series [3], the “rate enhancement due to dinucleophile (hydroxylamine) participation, compared with comparison esters E-4 and E-5” value is listed as “twenty to seventy thousand times greater”; the “Ratio (A+B half-life to A+C half-life)” value is given as 3.2 × 10^6.
For `CC(=O)CCC(=O)Oc1ccccc1` [Compound E-4, reference compound], the “Ratio (A+B half-life to A+C half-life)” value in series [3] amounted to 47.
For the compound `CC(=O)CC(C)(C)C(=O)Oc1ccccc1` [Compound E-5, reference compound], the “Ratio (A+B half-life to A+C half-life)” value in series [3] came to 166.
